Measurements taken from publication PMC11032351, “Epigenetic modulation through BET bromodomain inhibitors as a novel therapeutic strategy for progranulin-deficient frontotemporal dementia” (Scientific Reports, 2024).

Assays:
Recombinant BRD4(BD1) = molecular target: T1, Recombinant BRD4(BD1) (Homo sapiens, UniProt O60885); experiment: TR-FRET ligand displacement, recombinant GST-BRD4(BD1); type: binding; conditions: for Kd: GST-tagged, with 95% confidence interval
T1 construct: using the recombinant, individually purified bromodomains of BRD4 (GST-tagged BD1 and BD2); purchased BPS Biosciences, Inc 31,040
Method: (§1) Unless otherwise noted, experiments were performed in white, 384-well microtiter plates (Corning 3572 or PerkinElmer ProxiPlate-384 Plus) in 30 μL or 10 μL assay volume, respectively. TR-FRET measurements were acquired on a Tecan SPARK plate reader with SPARKCONTROL software version V2.1 (Tecan Group Ltd.), with the following settings: 340/50 nm excitation, 490/10 nm (Tb), 520/10 nm (FITC) emission, 100 μs delay, and 400 μs integration. The 490/10 and 520/10 nm emission channels were acquired with a 50% mirror and a dichroic 510 mirror, respectively, using independently optimized detector gain settings unless specified otherwise. The TR-FRET ratio was taken as the 520/490 nm intensity ratio on a per-well basis.
Assays were performed as described. Recombinant BRD4(BD1) and BRD4(BD2) were purchased from BPS Biosciences, Inc and Epicypher, Inc (GST-BRD4(BD1), 31,040; GST-BRD4(BD2), 15–0013, respectively). Recombinant bromodomains were diluted to 0.5 nM in assay buffer (25 mM HEPES, 150 mM NaCl, 0.5 mg/mL BSA, 0.005% TWEEN-20, pH 7.5) with 2 nM CoraFluor-1-labeled GST VHH (ChromoTek ST-250), then JQ1-FITC was added in serial dilution (cmax = 100 nM) using an HP D300 digital dispenser and allowed to equilibrate for 2 h at room temperature before TR-FRET measurements were taken. Nonspecific signal was determined with 50 μM JQ1-Acid, and data were fitted to a One Site–Specific Binding model in Prism 9. The KD determined from the one-site model was then used in Eq. 1 to adjust for a two-site model due to the dimeric GST protein:1 KD,2-site=KD,1-site×(1+2)
(§2) The following assay parameters have been used: (i) 4 nM GST-BRD4(BD1), 4 nM CoraFluor-labeled GST VHH, 20 nM JQ1-FITC in assay buffer, (ii) 4 nM GST-BRD4(BD2), 4 nM CoraFluor-labeled GST VHH, 20 nM JQ1-FITC in assay buffer, (iii) HEK293T or NPC cell lysate at 0.8 mg/mL total protein, 1 nM rabbit anti-BRD4 antibody, 2 nM CoraFluor-labeled anti-rabbit Nano-Secondary, 20 nM JQ1-FITC. For all experiments, test compounds were added in serial dilution (cmax = 10 μM) using an HP D300 digital dispenser and allowed to equilibrate for 2 h at room temperature before TR-FRET measurements were taken. The assay floor (background) was defined with the 10 μM mivebresib dose, and the assay ceiling (top) was defined via a no-inhibitor control. Data were fitted to a four-parameter dose–response model in Prism 9.
(§3) For TR-FRET ligand displacement assays with recombinant bromodomains, we have determined the KD of the respective fluorescent tracer (JQ1-FITC) under each assay condition. For endogenous BRD4 in whole cell extract, we have determined the KD,app of JQ1-FITC under each assay condition. Inhibitor KD and KD,app values have been calculated using Cheng-Prusoff principles, outlined in Eq. 2 below:2 KDorKD,app=IC50/1+[S]/KX where IC50 is the measured IC50 value, [S] is the concentration of fluorescent tracer, and KX is the KD or KD,app of the fluorescent tracer for a given condition.

[1] = molecular target: T2, Endogenous BRD4 (HEK293T) (Homo sapiens, UniProt O60885); experiment: CoraFluor TR-FRET ligand displacement, endogenous BRD4 in HEK293T lysate; type: binding; conditions: with 95% confidence interval, read-out: Endogenous BRD4 (HEK293T), KD,app
T2 construct: target engagement toward endogenous BRD4 derived from cellular lysates of cell types of interest; endogenous in cells; host or cells: HEK293T
Method: A cell pellet from one 15 cm dish (~ 25 M cells) of HEK293T cells, or from one confluent T-75 flask 8330-8 NPC cells (~ 9 M cells), was allowed to thaw on ice and cells were suspended in 400 μL lysis buffer (25 mM HEPES, 150 mM NaCl, 0.2% (v/v) Triton X-100, 0.02% (v/v) TWEEN-20, pH 7.5 supplemented with 2 mM DTT and one Roche cOmplete, Mini, EDTA-free protease inhibitor cocktail tablet (Sigma 11,836,170,001) per 7 mL. Cells were homogenized via passage through a 27.5-gauge needle 5 times, and the resulting mixture was incubated with slow, end-over-end mixing at 4 °C for 15 min. The lysate was clarified via centrifugation at 16,100 × g for 10 min at 4 °C then 800 μL (1:3 dilution) dilution buffer (25 mM HEPES, 150 mM NaCl, 0.005% (v/v) TWEEN-20, pH 7.5) was added and the lysate was re-clarified at 16,100 × g for 10 min at 4 °C. Total protein was quantified via detergent-compatible Bradford assay (ThermoFisher 23,246). The lysate was used fresh or flash-frozen in liquid nitrogen and stored at − 80 °C in single-use aliquots.
as §1
For the profiling of endogenous BRD4, cell lysates as prepared above were diluted to 0.8 mg/mL total protein in 1:3 lysis buffer:dilution buffer with 0.5 nM rabbit anti-BRD4 antibody (Cell Signaling Technology; E2A7X) and 1 nM CoraFluor-1-labeled anti-rabbit Nano-Secondary (ChromoTek CTK0101). JQ1-FITC was added in serial dilution (cmax = 200 nM) using an HP D300 digital dispenser and allowed to equilibrate for 2 h at room temperature before TR-FRET measurements were taken. Nonspecific signal was determined with 50 μM JQ1-Acid, and data were fitted to a One Site–Specific Binding model in Prism 9. The KD,app determined from the one-site model was then adjusted for a two-site model using Eq. 1.
as §2, §3

Structure (SMILES) | Kd (Recombinant BRD4(BD1)) | Kd [1] | selectivity for BD1 over BD2 (Recombinant BRD4(BD1); recombinant BRD4 BD1 vs BD2)
Cn1ccc2c(-c3cccnc3Oc3ccc(F)cc3)c[nH]c2c1=O [Compound 18B, 3-[2-(4-fluorophenoxy)pyridin-3-yl]-6-methyl-1,6-dihydro-7H-pyrrolo[2,3-c]pyridin-7-one] | 46 nM | 121 nM | 
Cn1ccc2c(-c3cc(F)cnc3Oc3ccc(F)cc3)c[nH]c2c1=O [Compound 86B, 3-(5-fluoro-2-(4-fluorophenoxy)pyridin-3-yl)-6-methyl-1,6-dihydro-7H-pyrrolo[2,3-c]pyridin-7-one] | 2640 nM | 7150 nM | 
Cn1ccc2c(-c3cccnc3Oc3ccc(F)c(F)c3)c[nH]c2c1=O [Compound 81B, 3-(2-(3,4-difluorophenoxy)pyridin-3-yl)-6-methyl-1,6-dihydro-7H-pyrrolo[2,3-c]pyridin-7-one] | 126 nM | 538 nM | 
Cn1cc(-c2cccnc2Nc2ccc(F)cc2)c2cc[nH]c2c1=O [Compound 85A, 4-(2-((4-fluorophenyl)amino)pyridin-3-yl)-6-methyl-1,6-dihydro-7H-pyrrolo[2,3-c]pyridin-7-one] | 76 nM | 93 nM | ~ 5.5 fold
Cn1cc(-c2cccnc2Oc2ccc(F)cc2)c2cc[nH]c2c1=O [Compound 18A, 4-(2-(4-fluorophenoxy)pyridin-3-yl)-6-methyl-1H-pyrrolo[2,3-c]pyridin-7(6H)-one] | 28 nM | 44 nM | 
Cn1ccc2c(-c3cccnc3Sc3ccc(F)cc3)c[nH]c2c1=O [Compound 84B, 3-(2-((4-fluorophenyl)thio)pyridin-3-yl)-6-methyl-1,6-dihydro-7H-pyrrolo[2,3-c]pyridin-7-one] | 43 nM | 196 nM | 
Cn1cc(-c2cc(F)cnc2Oc2ccc(F)cc2)c2cc[nH]c2c1=O [Compound 86A, 4-(5-fluoro-2-(4-fluorophenoxy)pyridin-3-yl)-6-methyl-1,6-dihydro-7H-pyrrolo[2,3-c]pyridin-7-one] | 168 nM | 559 nM | 
Cn1cc(-c2cccnc2Oc2cc(F)cc(F)c2)c2cc[nH]c2c1=O [Compound 82A, 4-(2-(3,5-difluorophenoxy)pyridin-3-yl)-6-methyl-1,6-dihydro-7H-pyrrolo[2,3-c]pyridin-7-one] | 41 nM | 49 nM | 
Cn1ccc2c(-c3cccnc3Oc3cc(F)cc(F)c3)c[nH]c2c1=O [Compound 82B, 3-(2-(3,5-difluorophenoxy)pyridin-3-yl)-6-methyl-1,6-dihydro-7H-pyrrolo[2,3-c]pyridin-7-one] | 147 nM | 519 nM | 
Cn1cc(-c2cccnc2Sc2ccc(F)cc2)c2cc[nH]c2c1=O [Compound 84A, 4-(2-((4-fluorophenyl)thio)pyridin-3-yl)-6-methyl-1,6-dihydro-7H-pyrrolo[2,3-c]pyridin-7-one] | 303 nM | 370 nM | 
Cn1cc(-c2cccnc2Oc2ccc(F)c(F)c2)c2cc[nH]c2c1=O [Compound 81A, 4-(2-(3,4-difluorophenoxy)pyridin-3-yl)-6-methyl-1,6-dihydro-7H-pyrrolo[2,3-c]pyridin-7-one] | 29 nM | 30 nM | 
Cn1ccc2c(-c3cccnc3Nc3ccc(F)cc3)c[nH]c2c1=O [Compound 85B, 3-(2-((4-fluorophenyl)amino)pyridin-3-yl)-6-methyl-1,6-dihydro-7H-pyrrolo[2,3-c]pyridin-7-one] | 951 nM | 3910 nM | 
